# According to patent publication US11612603B1, “3-triazolyl methyl-1,3,5-triazine-2,4-dione compounds and preparation method and application thereof” (priority 2022, dated 2023):
# Key:
# [1] = system: HEK293 cells; assay: In vitro cytotoxicity, MTT method, HEK293 cells; format: cell-based; conditions: for HEK293 cell viability: 24 h, MTT
# Experimental: (§1) HepG2, HEK293 and A549 cells were taken in logarithmic growth phase, digested with trypsin to prepare cell suspensions. The cell density was adjusted to 5×10^4 cells/mL, inoculating 180 μL per well in a sterile 96-well cell culture plate, incubating for 24 h at 37° C. in a 5% CO2 incubator. After the cells were attached to the bottom of the well plate, 20 μL of the drug solutions in a concentration gradient were added to each well, and 6 duplicate wells were set up in parallel, including blank group (no cells, no compounds) and control groups (no compounds). After incubating for 24 h at 37° C. in a 5% CO2 constant temperature incubator, 20 μL of 5 g/L MTT solution was added to each well for 4 h. After the incubation, the culture medium in the wells was gently aspirated, 100 μL of DMSO was added to each well, and the cells were shaken at low speed for 10 min on a shaker to fully dissolve the crystals to calculate cell viability. Cell viability (%)=(Sample Group GD Value−Blank Group GD Value)/(Control Group GD Value−Blank Group GD Value)
# [2] = system: HepG2 cells; assay: In vitro cytotoxicity, MTT method, HepG2 cells; format: cell-based; conditions: for HEPG2 cell viability: 24 h, MTT
# Experimental: as §1
# [3] = molecular target: SARS-CoV-2 3CL^pro (Severe acute respiratory syndrome coronavirus 2 (2019-nCoV) (SARS-CoV-2), UniProt P0DTD1); assay: biochemical; conditions: for IC50: 3CL^pro FRET; for inhibition at 0.0001 µM: Conc 0.1 nM; for inhibition at 0.0001 µM / inhibition at 0.001 µM / inhibition at 0.005 µM / inhibition at 0.01 µM / inhibition at 0.02 µM / inhibition at 0.03 µM / inhibition at 0.05 µM / inhibition at 0.1 µM / inhibition at 0.5 µM / inhibition at 1 µM: read-out: Inhibitory activity on 3CL^pro (inhibition rate); for inhibition at 0.001 µM: Conc 1 nM; for inhibition at 0.005 µM: Conc 5 nM; for inhibition at 0.01 µM: Conc 10 nM; for inhibition at 0.02 µM: Conc 20 nM; for inhibition at 0.03 µM: Conc 30 nM; for inhibition at 0.05 µM: Conc 50 nM; for inhibition at 0.1 µM: Conc 100 nM; for inhibition at 0.5 µM: Conc 500 nM; for inhibition at 1 µM: Conc 1000 nM
# [4] = system: A549 cells; assay: In vitro cytotoxicity, MTT method, A549 cells; format: cell-based; conditions: for A549 cell viability: 24 h, MTT
# Experimental: as §1
smiles,measurement,setting,value
Cn1cc2cc(/N=c3\[nH]c(=O)n(Cc4cnn[nH]4)c(=O)n3Cc3cc(F)c(F)cc3F)c(Cl)cc2n1 [Compound 1],HEK293 cell viability,[1]; 1.5625 nM,99.03%
same,HEK293 cell viability,[1]; 3.125 nM,96.70%
same,HEK293 cell viability,[1]; 6.25 nM,94.02%
same,HEK293 cell viability,[1]; 12.5 nM,89.50%
same,HEK293 cell viability,[1]; 25 nM,86.03%
same,HEK293 cell viability,[1]; 50 nM,88.49%
same,HEK293 cell viability,[1]; 100 nM,84.87%
same,HEK293 cell viability,[1]; 200 nM,83.54%
same,HEK293 cell viability,[1]; 400 nM,81.17%
same,inhibitory rate on HEK293 cells compared with positive drugs,[1]; at any concentration,lower than that of PF-07321332 and S-217622
same,HEPG2 cell viability,[2]; 1.5625 nM,97.09%
same,HEPG2 cell viability,[2]; 3.125 nM,96.29%
same,HEPG2 cell viability,[2]; 6.25 nM,97.83%
same,HEPG2 cell viability,[2]; 12.5 nM,95.39%
same,HEPG2 cell viability,[2]; 25 nM,90.35%
same,HEPG2 cell viability,[2]; 50 nM,88.09%
same,HEPG2 cell viability,[2]; 100 nM,87.72%
same,HEPG2 cell viability,[2]; 200 nM,85.58%
same,HEPG2 cell viability,[2]; 400 nM,82.62%
same,inhibitory rate on HepG2 cells compared with positive drugs,[2]; at any concentration,lower than that of PF-07321332 and S-217622
same,IC50,[3],92.6 nM
same,inhibition at 0.0001 µM,[3],1.68%
same,inhibition at 0.001 µM,[3],2.35%
same,inhibition at 0.005 µM,[3],7.62%
same,inhibition at 0.01 µM,[3],10.9%
same,inhibition at 0.02 µM,[3],15.2%
same,inhibition at 0.03 µM,[3],20.8%
same,inhibition at 0.05 µM,[3],26.2%
same,inhibition at 0.1 µM,[3],59.3%
same,inhibition at 0.5 µM,[3],82.5%
same,inhibition at 1 µM,[3],96.2%
same,A549 cell viability,[4]; 1.5625 nM,99.46%
same,A549 cell viability,[4]; 3.125 nM,98.65%
same,A549 cell viability,[4]; 6.25 nM,98.82%
same,A549 cell viability,[4]; 12.5 nM,98.93%
same,A549 cell viability,[4]; 25 nM,98.71%
same,A549 cell viability,[4]; 50 nM,98.76%
same,A549 cell viability,[4]; 100 nM,98.69%
same,A549 cell viability,[4]; 200 nM,95.01%
same,A549 cell viability,[4]; 400 nM,93.02%
same,inhibitory rate on A549 cells compared with positive drugs,[4]; at any concentration,lower than that of PF-07321332 and S-217622
Cn1cc2cc(/N=c3\[nH]c(=O)n(Cc4cnn[nH]4)c(=O)n3Cc3ccc(C(F)(F)F)cc3)c(Cl)cc2n1 [Compound 12],HEK293 cell viability,[1]; 1.5625 nM,93.67%
same,HEK293 cell viability,[1]; 3.125 nM,93.03%
same,HEK293 cell viability,[1]; 6.25 nM,92.31%
same,HEK293 cell viability,[1]; 12.5 nM,90.69%
same,HEK293 cell viability,[1]; 25 nM,84.22%
same,HEK293 cell viability,[1]; 50 nM,82.91%
same,HEK293 cell viability,[1]; 100 nM,81.24%
same,HEK293 cell viability,[1]; 200 nM,80.57%
same,HEK293 cell viability,[1]; 400 nM,78.23%
same,HEK293 cell viability compared with positive drugs,[1]; at 12.5 nM and lower,higher than that of PF-07321332 and S-217622
same,toxicity on HEK293 cells compared with positive drugs,[1]; at 400 nM and 200 nM,slightly higher than that of PF-07321332 and S-217622
same,HEPG2 cell viability,[2]; 1.5625 nM,95.73%
same,HEPG2 cell viability,[2]; 3.125 nM,95.07%
same,HEPG2 cell viability,[2]; 6.25 nM,93.31%
same,HEPG2 cell viability,[2]; 12.5 nM,90.22%
same,HEPG2 cell viability,[2]; 25 nM,88.36%
same,HEPG2 cell viability,[2]; 50 nM,86.83%
same,HEPG2 cell viability,[2]; 100 nM,86.63%
same,HEPG2 cell viability,[2]; 200 nM,81.38%
same,HEPG2 cell viability,[2]; 400 nM,76.67%
same,HepG2 cell viability compared with positive drugs,[2]; at 12.5 nM and lower,higher than that of PF-07321332 and S-217622
same,toxicity on HepG2 cells compared with positive drugs,[2]; at 400 nM and 200 nM,slightly higher than that of PF-07321332 and S-217622
same,IC50,[3],178 nM
same,inhibition at 0.0001 µM,[3],0.76%
same,inhibition at 0.001 µM,[3],2.33%
same,inhibition at 0.005 µM,[3],5.73%
same,inhibition at 0.01 µM,[3],8.52%
same,inhibition at 0.02 µM,[3],12.1%
same,inhibition at 0.03 µM,[3],16.5%
same,inhibition at 0.05 µM,[3],21.2%
same,inhibition at 0.1 µM,[3],37.2%
same,inhibition at 0.5 µM,[3],68.7%
same,inhibition at 1 µM,[3],88.6%
same,A549 cell viability,[4]; 1.5625 nM,98.52%
same,A549 cell viability,[4]; 3.125 nM,97.34%
same,A549 cell viability,[4]; 6.25 nM,96.55%
same,A549 cell viability,[4]; 12.5 nM,97.32%
same,A549 cell viability,[4]; 25 nM,96.21%
same,A549 cell viability,[4]; 50 nM,98.03%
same,A549 cell viability,[4]; 100 nM,96.61%
same,A549 cell viability,[4]; 200 nM,94.13%
same,A549 cell viability,[4]; 400 nM,90.13%
same,A549 cell viability compared with positive drugs,[4]; at 12.5 nM and lower,higher than that of PF-07321332 and S-217622
same,toxicity on A549 cells compared with positive drugs,[4]; at 400 nM and 200 nM,slightly higher than that of PF-07321332 and S-217622
